Assay results from paper PMC10887108, “Novel Brain-Penetrant, Small-Molecule Tubulin Destabilizers for the Treatment of Glioblastoma” (Biomedicines, 2024).

Experiments:
[1] = biological target: T1, Porcine tubulin (colchicine binding site) (Sus scrofa, UniProt P02554); assay: Colchicine competitive binding assay (fluorescence); conditions: compound 50 µM, colchicine 10 μM, tubulin 20 μM
T1 construct: purchased Cytoskeleton, Inc. T240; host or cells: brain tissue (purified)

porcine tubulin = biological target: T2, porcine tubulin (Sus scrofa, UniProt P02554); assay: Tubulin polymerization assay (fluorescent reporter); assay type: biochemical; conditions: porcine tubulin 20 μM; for reduction in tubulin polymerization (AUC): compound 5 μM, relative to DMSO
T2 construct: purchased Cytoskeleton, Inc. BK011P
Procedure: Tubulin polymerization was evaluated by monitoring the incorporation of a fluorescent reporter into MTs during polymerization. The tubulin polymerization assay kit (Cytoskeleton, Inc. BK011P; Denver, CO, USA) was used according to the manufacturer’s instructions. Briefly, the tubulin reaction mix was kept on ice until immediately prior to use.
(A,B) Representative tubulin polymerization plots and data quantification. […] (C) Immunofluorescence staining of β-tubulin in U87 glioblastoma cells. […] Images were captured using an Operetta confocal microscope at 40× magnification. Scale bar, 10 μm. […] Data was collected with a BD FACS Canto II Flow Cytometer and analyzed using the BD FACSDiva software. (E) The percentage of cells in G1, S, and G2/M phases from the histograms in (D). Data are plotted as mean ± SD from at least three independent experiments. Analysis between groups in (B) was performed using a one-way ANOVA with Tukey’s multiple comparisons test.

U87 glioblastoma cells [2] = assay: alamarBlue cell viability assay, U87; assay type: cell-based; conditions: Homo sapiens, 72 h, U87, 72 h, average absolute IC50
Procedure: (§1) Cells (100 µL/well) were seeded in 96-well tissue culture plates (Greiner Bio-One 650090; Kremsmünster, Austria). The plating density (cells/well) for each cell line was as follows: LN-18 (3000), U87 (4000), and HMC3 (5000). After overnight incubation, compounds were added to the cells (50 µL at 3× concentration, final 0.1% DMSO), and plates were incubated for 72 h. Cell viability was assessed by the addition of 25 µL of alamarBlue for a final concentration of 100 µM final concentration (Resazurin redox reagent, Sigma-Aldrich R7017; St. Louis, MO, USA). After a 4 h incubation, fluorescence was read on a CLARIOstar Plus plate reader (BMG Labtech, Ortenberg, Germany) at EX 570/EM 590 nm.

[3] = tested on: LN-18 glioblastoma cells (TMZ-resistant); assay: alamarBlue cell viability assay, LN-18; assay type: cell-based; conditions: Homo sapiens, LN-18, 72 h, average absolute IC50
Procedure: as §1

[4] = tested on: U87 cells (microtubule network); assay: Immunofluorescent staining of cellular β-tubulin; assay type: cell-based, human; conditions: U87, compounds at their IC50 concentrations, 24 h
Procedure: U87 cells (4000/well) were plated in black 96-well plates (Perkin Elmer 6055302; Waltham, MA, USA) and grown overnight. Cells were treated with compounds for 24 h, fixed with 4% paraformaldehyde for 20 min, and permeabilized with FoxP3 permeabilization buffer (eBioscience/Thermo Fisher Scientific 00-5523-00; Waltham, MA, USA) for 10 min at RT. Cells were incubated with an anti-TUBB3 (Tuj1) antibody (1:1000; […] Technologies 60052; Vancouver, BC, Canada) labeled with Hoechst 33342 dye (1:2000; Thermo Fisher Scientific H3570; Waltham, MA, USA). Images (40×) were taken with an automated high-content imaging microscope (Operetta, Perkin Elmer; Waltham, MA, USA).

U87 glioblastoma cells [5] = assay: Cell cycle analysis (propidium iodide flow cytometry); assay type: cell-based, human; conditions: 48 h
Procedure: […] Cells were washed in ice-cold PBS, resuspended in 1 mL of ice-cold 70% ethanol, and fixed overnight at −20 °C. Cells were centrifuged and resuspended in PBS containing RNAse A at a final concentration of 0.5 mg/mL (MilliporeSigma 10109142001; Burlington, MA, USA) and propidium iodide at a final concentration of 0.04 mg/mL (Sigma-Aldrich P4170, St. Louis, MO, USA) for 1 h at 37 °C. Nuclear staining was analyzed using a BD FACSCanto II flow cytometer (BD Biosciences; Franklin Lakes, NJ, USA) to determine cell cycle distribution. Cell cycle analysis was performed using the BD FACSDiva software v8.0.

SMILES	reduction of colchicine–tubulin fluorescence relative to control [1]	increase in tubulin polymerization (AUC) (porcine tubulin; paclitaxel 3 μM)	IC50 (U87 glioblastoma cells [2])	IC50 [3]	reduction in tubulin polymerization (AUC) (porcine tubulin)	effect on tubulin organization / MT network morphology [4]	cells arrested at G2/M (U87 glioblastoma cells [5]; U87, 5 µM)	cells arrested at G2/M (U87 glioblastoma cells [5]; U87, 20 nM)
COC(=O)Nc1nc2ccc(C(=O)c3cccs3)cc2[nH]1 [NOC, Nocodazole, reference compound]	79%							
CC(=O)O[C@H]1C(=O)[C@@]2(C)[C@H]([C@H](OC(=O)c3ccccc3)[C@]3(O)C[C@H](OC(=O)[C@H](O)[C@@H](NC(=O)c4ccccc4)c4ccccc4)C(C)=C1C3(C)C)[C@]1(OC(C)=O)CO[C@@H]1C[C@@H]2O [PX, paclitaxel, reference compound]		91%						
CO[C@H]1CC[C@@H](C(=O)NC(=O)Nc2ccc(Oc3ncc(Cl)cn3)c(C)c2)CC1 [RGN3062]			0.588 µM	0.073 µM	36%	substantial tubulin disruption	73%	
CO[C@H]1CC[C@H](C(=O)NC(=O)Nc2ccc(Oc3ncc(Cl)cn3)c(C)c2)CC1 [RGN3096]			> 10 µM	2.43 µM	no difference relative to the DMSO control	no visible effect on tubulin and cell structure	11%	
COc1cc2c(c(OC)c1OC)-c1ccc(OC)c(=O)cc1[C@@H](NC(C)=O)CC2 [colchicine, reference compound]						varying levels of disruption of tubulin organization		64%
